Assay results reported in ChEMBL document CHEMBL1201862, “PubChem BioAssay data set” (2004).
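Values below derive from 48-hour exposures of cells grown in 96-well plates, with endpoints linearly interpolated between the two concentrations bracketing the appropriate inhibition level. Here, GI50 denotes the concentration required for 50% inhibition of growth.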 The source made the active and inactive calls. Rule as the data show it: active = GI50 up to about 1.1 µM and inactive = higher.

Key:
Assay in all cases: growth of human tumour cells (NCI), 48 h
KM-20L2 = tested on: KM-20L2
786-0 = tested on: 786-0
A498 = tested on: A498
A549 = tested on: A549
ACHN = tested on: ACHN
BT-549 = tested on: BT-549
CAKI-1 = tested on: CAKI-1
CCRF-CEM = tested on: CCRF-CEM
COLO 205 = tested on: COLO 205
DU-145 = tested on: DU-145
EKVX = tested on: EKVX
HCC 2998 = tested on: HCC 2998
HCT-116 = tested on: HCT-116
HCT-15 = tested on: HCT-15
HL-60 = tested on: HL-60
HOP-62 = tested on: HOP-62
HOP-92 = tested on: HOP-92
HT-29 = tested on: HT-29
Hs-578T = tested on: Hs-578T
IGROV-1 = tested on: IGROV-1
K562 = tested on: K562
KM12 = tested on: KM12
LOX IMVI = tested on: LOX IMVI
M14 = tested on: M14
MCF7 = tested on: MCF7
MDA-MB-231 = tested on: MDA-MB-231
MDA-MB-435 = tested on: MDA-MB-435
MDA-N = tested on: MDA-N
MOLT-4 = tested on: MOLT-4
Malme-3M = tested on: Malme-3M
NCI-H226 = tested on: NCI-H226
NCI-H23 = tested on: NCI-H23
NCI-H460 = tested on: NCI-H460
NCI-H522 = tested on: NCI-H522
NCI/ADR-RES = tested on: NCI/ADR-RES
OVCAR-3 = tested on: OVCAR-3
OVCAR-4 = tested on: OVCAR-4
OVCAR-5 = tested on: OVCAR-5
OVCAR-8 = tested on: OVCAR-8
PC-3 = tested on: PC-3
RPMI-8226 = tested on: RPMI-8226
RXF 393 = tested on: RXF 393
SF-268 = tested on: SF-268
SF-295 = tested on: SF-295
SF-539 = tested on: SF-539
SK-MEL-28 = tested on: SK-MEL-28
SK-MEL-2 = tested on: SK-MEL-2
SK-MEL-5 = tested on: SK-MEL-5
SK-OV-3 = tested on: SK-OV-3
SN12C = tested on: SN12C
SNB-19 = tested on: SNB-19
SNB-75 = tested on: SNB-75
SR = tested on: SR
SW-620 = tested on: SW-620
T47D = tested on: T47D
TK-10 = tested on: TK-10
U-251 = tested on: U-251
UACC-257 = tested on: UACC-257
UACC-62 = tested on: UACC-62
UO-31 = tested on: UO-31

Measured: GI50

CC(C)SC1CC2C(CC1(C)O)C2(C)C (stereo not given)
inactive: KM-20L2 4.3 µM

CCc1nc(N)nc(N)c1-c1ccc(Cl)cc1 [PYRIMETHAMINE]
3.94 µM: HCT-15
active: K562 0.542 µM
inactive: 786-0 4.59 µM | A498 13.3 µM | A549 1.47 µM | ACHN 5.11 µM | BT-549 25.8 µM | CAKI-1 71.9 µM | CCRF-CEM 3.33 µM | COLO 205 18.9 µM | DU-145 18.7 µM | EKVX 7.55 µM | HCC 2998 6.25 µM | HCT-116 6.14 µM | HL-60 2.38 µM | HOP-62 13.4 µM | HOP-92 21.3 µM | HT-29 4.25 µM | Hs-578T > 58.2 µM | IGROV-1 9.86 µM | KM12 11.6 µM | LOX IMVI 6.19 µM | M14 5.71 µM | MCF7 11.1 µM | MDA-MB-231 9.25 µM | MDA-MB-435 8.36 µM | MDA-N 4.83 µM | MOLT-4 4.84 µM | Malme-3M 18.2 µM | NCI-H226 42.6 µM | NCI-H23 5.79 µM | NCI-H460 2.79 µM | NCI-H522 22.5 µM | NCI/ADR-RES 30.9 µM | OVCAR-3 32 µM | OVCAR-4 41.6 µM | OVCAR-5 > 60 µM | OVCAR-8 5.79 µM | PC-3 6.5 µM | RPMI-8226 34.6 µM | RXF 393 > 76.4 µM | SF-268 9.77 µM | SF-295 4.44 µM | SF-539 20.7 µM | SK-MEL-28 > 66.7 µM | SK-MEL-2 38.4 µM | SK-MEL-5 2.48 µM | SK-OV-3 74.3 µM | SN12C 3.33 µM | SNB-19 32.8 µM | SNB-75 44.9 µM | SR 4.24 µM | SW-620 5.61 µM | T47D 32.7 µM | TK-10 21.7 µM | U-251 9.75 µM | UACC-257 12.5 µM | UACC-62 4.72 µM | UO-31 16.4 µM
